target: T1, recombinant human PDK1 (Homo sapiens, UniProt O15530); assay: PDK1 IMAP fluorescence polarization assay (inhibition of peptide substrate phosphorylation); type: biochemical; conditions: Table 6; 10 nM PDK1 enzyme, 100 nM peptide substrate, 100 nM PIFtide, 2.5 uM ATP, 1.5 hours
T1 construct: containing amino acids 51-556 of the human PDK1 enzyme; made in house; host or cells: Sf9 insect cells
T1 sequence (O15530 51-556): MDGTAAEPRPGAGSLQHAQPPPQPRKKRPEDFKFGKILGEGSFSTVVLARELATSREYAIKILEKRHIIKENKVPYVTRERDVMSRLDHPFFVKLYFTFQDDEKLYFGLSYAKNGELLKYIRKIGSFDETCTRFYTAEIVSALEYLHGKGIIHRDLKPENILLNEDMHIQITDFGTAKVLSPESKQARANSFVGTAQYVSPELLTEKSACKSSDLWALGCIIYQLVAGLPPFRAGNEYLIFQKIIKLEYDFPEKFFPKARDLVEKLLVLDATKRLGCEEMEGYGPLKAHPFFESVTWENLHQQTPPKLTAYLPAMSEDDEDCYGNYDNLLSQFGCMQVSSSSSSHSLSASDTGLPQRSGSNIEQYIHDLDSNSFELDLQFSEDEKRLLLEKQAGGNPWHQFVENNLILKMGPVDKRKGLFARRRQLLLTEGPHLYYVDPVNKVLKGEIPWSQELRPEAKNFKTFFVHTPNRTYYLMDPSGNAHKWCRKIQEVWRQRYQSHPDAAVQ

| Compound | IC50 |
| --- | --- |
| Cc1cc(-c2c[nH]c(C(=O)Nc3cccc(F)c3N3CCC(C(=O)NCCN)CC3)n2)ccn1 [Compound 83, N-(2-aminoethyl)-1-[2-fluoro-6-[[[4-(2-methyl-4-pyridinyl)-1H-imidazol-2-yl]carbonyl]amino]phenyl]-4-piperidinecarboxamide] | 0.051 to 0.25 µM |
| Cc1cc(-c2c[nH]c(C(=O)Nc3cccc(F)c3N3CCC(C(=O)NC4CCCCC4N)CC3)n2)ccn1 (centres unmarked) [Compound 84, N-(2-aminocyclohexyl)-1-[2-fluoro-6-[[[4-(2-methyl-4-pyridinyl)-1H-imidazol-2-yl]carbonyl]amino]phenyl]-4-piperidinecarboxamide] | 0.051 to 0.25 µM |
| CNCCCCNC(=O)C1CCN(c2c(F)cccc2NC(=O)c2nc(-c3ccnc(C)c3)c[nH]2)CC1 [Compound 85, 1-[2-fluoro-6-[[[4-(2-methyl-4-pyridinyl)-1H-imidazol-2-yl]carbonyl]amino]phenyl]-N-[4-(methylamino)butyl]-4-piperidinecarboxamide] | 0.251 to 1 µM |
| CCNCCNC(=O)C1CCN(c2c(F)cccc2NC(=O)c2nc(-c3ccnc(C)c3)c[nH]2)CC1 [Compound 86, N-[2-(ethylamino)ethyl]-1-[2-fluoro-6-[[[4-(2-methyl-4-pyridinyl)-1H-imidazol-2-yl]carbonyl]amino]phenyl]-4-piperidinecarboxamide] | 0.251 to 1 µM |
| Cc1cc(-c2c[nH]c(C(=O)Nc3cccc(F)c3N3CCC(C(=O)NCC4(N)CCCC4)CC3)n2)ccn1 [Compound 88, N-[(1-aminocyclopentyl)methyl]-1-[2-fluoro-6-[[[4-(2-methyl-4-pyridinyl)-1H-imidazol-2-yl]carbonyl]amino]phenyl]-4-piperidinecarboxamide] | 0.051 to 0.25 µM |
| Cc1cc(-c2c[nH]c(C(=O)Nc3cccc(F)c3N3CCC(C(=O)N4CCOC(CN)C4)CC3)n2)ccn1 (centres unmarked) [Compound 89, N-[2-[4-[[2-(aminomethyl)-4-morpholinyl]carbonyl]-1-piperidinyl]-3-fluorophenyl]-4-(2-methyl-4-pyridinyl)-1H-imidazole-2-carboxamide] | 0.051 to 0.25 µM |
| Cc1cc(-c2c[nH]c(C(=O)Nc3cccc(F)c3N3CCC(C(=O)N4CCOC(CCO)C4)CC3)n2)ccn1 (centres unmarked) [Compound 90, N-[3-fluoro-2-[4-[[2-(2-hydroxyethyl)-4-morpholinyl]carbonyl]-1-piperidinyl]phenyl]-4-(2-methyl-4-pyridinyl)-1H-imidazole-2-carboxamide] | 0.251 to 1 µM |
| Cc1cc(-c2c[nH]c(C(=O)Nc3cccc(F)c3N3CCC(C(=O)N4CC5CNC(C5)C4)CC3)n2)ccn1 (centres unmarked) [Compound 91, N-[2-[4-(3,6-diazabicyclo[3.2.1]oct-3-ylcarbonyl)-1-piperidinyl]-3-fluorophenyl]-4-(2-methyl-4-pyridinyl)-1H-imidazole-2-carboxamide] | 0.051 to 0.25 µM |
| Cc1cc(-c2c[nH]c(C(=O)Nc3cccc(F)c3N3CCC(C(=O)N4CC[C@@H](F)C4)CC3)n2)ccn1 [Compound 92, N-[3-fluoro-2-[4-[(3(R)-fluoro-1-pyrrolidinyl)carbonyl]-1-piperidinyl]phenyl]-4-(2-methyl-4-pyridinyl)-1H-imidazole-2-carboxamide] | 1 to 5 µM |
| Cc1cc(-c2c[nH]c(C(=O)Nc3cccc(F)c3N3CCC(C(=O)N4CCC5(CC4)CNC(=O)C5)CC3)n2)ccn1 [Compound 93, N-[3-fluoro-2-[4-[(3-oxo-2,8-diazaspiro[4.5]dec-8-yl)carbonyl]-1-piperidinyl]phenyl]-4-(2-methyl-4-pyridinyl)-1H-imidazole-2-carboxamide] | 0.251 to 1 µM |
| Cc1cc(-c2c[nH]c(C(=O)Nc3cccc(F)c3N3CCC(C(=O)N4CCC5(CC4)CNC5)CC3)n2)ccn1 [Compound 94, N-[2-[4-(2,7-diazaspiro[3.5]noN-7-ylcarbonyl)-1-piperidinyl]-3-fluorophenyl]-4-(2-methyl-4-pyridinyl)-1H-imidazole-2-carboxamide] | 0.051 to 0.25 µM |
| Cc1cc(-c2c[nH]c(C(=O)Nc3cccc(F)c3N3CCC(C(=O)N4CCOC(C(C)N)C4)CC3)n2)ccn1 (centres unmarked) [Compound 95, N-[2-[4-[[2-(1-aminoethyl)-4-morpholinyl]carbonyl]-1-piperidinyl]-3-fluorophenyl]-4-(2-methyl-4-pyridinyl)-1H-imidazole-2-carboxamide] | 0.251 to 1 µM |
| Cc1cc(-c2c[nH]c(C(=O)Nc3cccc(F)c3N3CCC(C(=O)N4CCC(O)(c5ccccn5)CC4)CC3)n2)ccn1 [Compound 96, N-[3-fluoro-2-[4-[[4-hydroxy-4-(2-pyridinyl)-1-piperidinyl]carbonyl]-1-piperidinyl]phenyl]-4-(2-methyl-4-pyridinyl)-1H-imidazole-2-carboxamide] | 1 to 5 µM |

same assay, conditions: Table 10; compounds 97-132

| Compound | IC50 |
| --- | --- |
| NCC1CCN(c2c(F)cccc2NC(=O)c2nc(-c3ccc(=O)n(C(F)F)c3)c[nH]2)CC1 [Compound 97, N-(2-(4-(aminomethyl)piperidin-1-yl)-3-fluorophenyl)-4-(1-(difluoromethyl)-6-oxo-1,6-dihydropyridin-3-yl)-1H-imidazole-2-carboxamide] | 0.051 to 0.25 µM |
| Cc1cc(-c2c[nH]c(C(=O)Nc3cccc(F)c3N3CCC[C@@H](N)C3)n2)cc(Cl)n1 [Compound 98, (R)—N-(2-(3-aminopiperidin-1-yl)-3-fluorophenyl)-4-(2-chloro-6-methylpyridin-4-yl)-1H-imidazole-2-carboxamide] | 0.251 to 1 µM |
| NCC1CCN(c2c(F)cccc2NC(=O)c2nc(-c3cc(N4CCOCC4)nc(N)n3)c[nH]2)CC1 [Compound 99, 4-(2-amino-6-morpholinopyrimidin-4-yl)-N-(2-(4-(aminomethyl)piperidin-1-yl)-3-fluorophenyl)-1H-imidazole-2-carboxamide] | 0.001 to 0.05 µM |
| CNc1nc(-c2c[nH]c(C(=O)Nc3cccc(F)c3N3CCC(CN)CC3)n2)cc(N2CCN(C(=O)OC)CC2)n1 [Compound 100, methyl 4-(6-(2-(2-(4-(aminomethyl)piperidin-1-yl)-3-fluorophenylcarbamoyl)-1H-imidazol-4-yl)-2-(methylamino)pyrimidin-4-yl)piperazine-1-carboxylate] | 0.001 to 0.05 µM |
| CNc1nc(-c2c[nH]c(C(=O)Nc3cccc(F)c3N3CCC(CN)CC3)n2)cc(N2CCN(C(C)=O)CC2)n1 [Compound 101, 4-(6-(4-acetylpiperazin-1-yl)-2-(methylamino)pyrimidin-4-yl)-N-(2-(4-(aminomethyl)piperidin-1-yl)-3-fluorophenyl)-1H-imidazole-2-carboxamide] | 0.001 to 0.05 µM |
| CNc1nc(-c2c[nH]c(C(=O)Nc3ccccc3N3CCNCC3)n2)cc(N2CCN(C(C)=O)CC2)n1 [Compound 103, 4-(6-(4-acetylpiperazin-1-yl)-2-(methylamino)pyrimidin-4-yl)-N-(2-(piperazin-1-yl)phenyl)-1H-imidazole-2-carboxamide] | 0.051 to 0.25 µM |
| CNc1nc(-c2c[nH]c(C(=O)Nc3ccccc3N3CCNCC3)n2)cc(N2CCN(C(=O)OCc3ccccc3)CC2)n1 [Compound 105, benzyl 4-(2-(methylamino)-6-(2-(2-(piperazin-1-yl)phenylcarbamoyl)-1H-imidazol-4-yl)pyrimidin-4-yl)piperazine-1-carboxylate] | 1 to 5 µM |
| CNc1nc(-c2c[nH]c(C(=O)Nc3ccccc3N3CCNCC3)n2)cc(N2CCOC(C(=O)NC3CCCCC3)C2)n1 (centres unmarked) [Compound 106, N-cyclohexyl-4-(2-(methylamino)-6-(2-(2-(piperazin-1-yl)phenylcarbamoyl)-1H-imidazol-4-yl)pyrimidin-4-yl)morpholine-2-carboxamide] | 0.051 to 0.25 µM |
| CNc1nc(-c2c[nH]c(C(=O)Nc3cccc(F)c3N3CCC(CN)CC3)n2)cc(N2C[C@@H](C(=O)NC3CCCCC3)CC[C@H]2C)n1 [Compound 115, (3S,6R)-1-(6-(2-(2-(4-(aminomethyl)piperidin-1-yl)-3-fluorophenylcarbamoyl)-1H-imidazol-4-yl)-2-(methylamino)pyrimidin-4-yl)-N-cyclohexyl-6-methylpiperidine-3-carboxamide] | 0.001 to 0.05 µM |
| CNc1nc(-c2c[nH]c(C(=O)Nc3cccc(F)c3N3CCC(CN)CC3)n2)cc(N2C[C@H](C(=O)NC3CCCCC3)CC[C@@H]2C)n1 [Compound 116, (3R,6S)-1-(6-(2-(2-(4-(aminomethyl)piperidin-1-yl)-3-fluorophenylcarbamoyl)-1H-imidazol-4-yl)-2-(methylamino)pyrimidin-4-yl)-N-cyclohexyl-6-methylpiperidine-3-carboxamide] | 0.001 to 0.05 µM |
| CNc1nc(-c2c[nH]c(C(=O)Nc3cccc(F)c3N3CCO[C@@H](CN)C3)n2)cc(N2C[C@@H](C(=O)NC3CCCCC3)CC[C@H]2C)n1 [Compound 117, (3S,6R)-1-(6-(2-(2-((S)-2-(aminomethyl)morpholino)-3-fluorophenylcarbamoyl)-1H-imidazol-4-yl)-2-(methylamino)pyrimidin-4-yl)-N-cyclohexyl-6-methylpiperidine-3-carboxamide] | 0.001 to 0.05 µM |
| CNc1nc(-c2c[nH]c(C(=O)Nc3cccc(F)c3N3CCC(CN)CC3)n2)cc(N2CCNC[C@H]2C)n1 [Compound 120, (R)—N-(2-(4-(aminomethyl)piperidin-1-yl)-3-fluorophenyl)-4-(2-(methylamino)-6-(2-methylpiperazin-1-yl)pyrimidin-4-yl)-1H-imidazole-2-carboxamide] | 0.001 to 0.05 µM |
| CNc1nc(-c2c[nH]c(C(=O)Nc3cccc(F)c3N3CCC(CN)CC3)n2)cc(N2CCOC[C@H]2C)n1 [Compound 121, (R)—N-(2-(4-(aminomethyl)piperidin-1-yl)-3-fluorophenyl)-4-(2-(methylamino)-6-(3-methylmorpholino)pyrimidin-4-yl)-1H-imidazole-2-carboxamide] | 0.001 to 0.05 µM |
